Reference: PubChem BioAssay (NCI)
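Five concentrations, 48 hours, 96-well plates. The concentration for full growth arrest is given as TGI.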

Experiments:
Experiment in all cases: NCI tumour cell line growth inhibition, 48 h
PC-3 prostate = system: PC-3 prostate
NCI-H226 lung = system: NCI-H226 lung
HS 578T breast = system: HS 578T breast
RPMI-8226 leukemia = system: RPMI-8226 leukemia
OVCAR-5 ovarian = system: OVCAR-5 ovarian
HCT-15 colon = system: HCT-15 colon
OVCAR-4 ovarian = system: OVCAR-4 ovarian
M14 melanoma = system: M14 melanoma
SK-MEL-2 melanoma = system: SK-MEL-2 melanoma
MCF7 breast = system: MCF7 breast
LOX IMVI melanoma = system: LOX IMVI melanoma
COLO 205 colon = system: COLO 205 colon
SW-620 colon = system: SW-620 colon
OVCAR-8 ovarian = system: OVCAR-8 ovarian
UACC-62 melanoma = system: UACC-62 melanoma
CAKI-1 renal = system: CAKI-1 renal
MDA-MB-435 = system: MDA-MB-435
TK-10 renal = system: TK-10 renal
HCC-2998 colon = system: HCC-2998 colon
RXF 393 renal = system: RXF 393 renal
ACHN renal = system: ACHN renal
SNB-75 CNS = system: SNB-75 CNS
SF-268 CNS = system: SF-268 CNS
EKVX NSCLC = system: EKVX NSCLC
SN12C renal = system: SN12C renal
UO-31 renal = system: UO-31 renal
T-47D breast = system: T-47D breast
SK-MEL-28 melanoma = system: SK-MEL-28 melanoma
BT-549 breast = system: BT-549 breast
NCI/ADR-RES ovarian = system: NCI/ADR-RES ovarian
NCI-H23 lung = system: NCI-H23 lung
U251 CNS = system: U251 CNS
K-562 leukemia = system: K-562 leukemia
SF-295 CNS = system: SF-295 CNS
HOP-62 NSCLC = system: HOP-62 NSCLC
NCI-H522 lung = system: NCI-H522 lung
OVCAR-3 ovarian = system: OVCAR-3 ovarian
KM12 colon = system: KM12 colon
MDA-N = system: MDA-N
SF-539 CNS = system: SF-539 CNS
MOLT-4 leukemia = system: MOLT-4 leukemia
DU-145 prostate = system: DU-145 prostate
SK-MEL-5 melanoma = system: SK-MEL-5 melanoma
IGROV1 ovarian = system: IGROV1 ovarian
MALME-3M melanoma = system: MALME-3M melanoma
SK-OV-3 ovarian = system: SK-OV-3 ovarian
A549 NSCLC = system: A549 NSCLC
A498 renal = system: A498 renal
UACC-257 melanoma = system: UACC-257 melanoma
HCT-116 colon = system: HCT-116 colon
786-0 renal = system: 786-0 renal
HOP-92 NSCLC = system: HOP-92 NSCLC
MDA-MB-231 breast = system: MDA-MB-231 breast
HL-60(TB) leukemia = system: HL-60(TB) leukemia
NCI-H460 lung = system: NCI-H460 lung
SNB-19 CNS = system: SNB-19 CNS
CCRF-CEM leukemia = system: CCRF-CEM leukemia
HT29 colon = system: HT29 colon
SR leukemia = system: SR leukemia

Measured: TGI

CNC(=O)CCCN(C)C(=O)CCCCC(=O)N(C)C
not listed: SR leukemia
> 100 µM: all other assays above

Cc1c2c(n(Cc3ccccn3)c1C)NN=C(C#N)S2(=O)=O
not listed: RPMI-8226 leukemia | RXF 393 renal | K-562 leukemia | MALME-3M melanoma | HL-60(TB) leukemia | CCRF-CEM leukemia
> 100 µM: all other assays above
